Consider 26 molecules from patent US9795131B2, “Sophorolactone compositions and uses thereof” (ECOVER CO-ORDINATION CENTER N.V., priority 2011, dated 2017).

“And” between values parts separate entries of the source, which are not always exact repeats. Identical values can stand only once.

Data set [1] can be described thus: Capacity of solvents to dissolve sophorolactone. Type of data set: physicochemical. Conditions: percent sophorolactone dissolved by the solvent at room temperature.
The conditions of data set [2]: OK / NOK; cited from earlier work.
The nature of data set [3]: Solubility in water. It is filed as physicochemical.
Data set [4] can be described thus: Contact angle of isoamyl lactate / partial sophorolipid hydrolysate mixtures. To be noted: room temperature, sessile drop; FIG. 4. It is filed as physicochemical. How it is done:
The contact angle of combinations of isoamyl lactate (Galactic) with partial sophorolipid hydrolysate (0.7 mol equivalent) on white PVC-strips (Leneta) was measured at room temperature with a Krüss DSA100 tensiometer using the sessile drop method. Each component of the mixtures is at maximum 1% active matter. Results are evaluated with the software Statistica.

Data set [5] is described as follows: Contact angle of deionized water on treated substrate, without or with rinses. Type of data set: physicochemical. Conditions: for Contact angle Rinse 1 / Contact angle Rinse 2 / Contact angle Rinse 3 / Contact angle Rinse 4 / Contact angle Rinse 5 / Contact Angle: PVC, in ° (unit assumed); for Contact angle Rinse 1: after rinse 1; for Contact angle Rinse 2: after rinse 2; for Contact angle Rinse 3: after rinse 3; for Contact angle Rinse 4: after rinse 4; for Contact angle Rinse 5: after rinse 5; for Contact Angle: before rinsing, NM = not measurable due to an extremely low contact angle. How it is done: A test composition was made by dissolving 10% sophorolactone in ethanol. […] […] Substrates used were glass, polyvinylchloride (PVC) and leek leaves.
(§1) Several contact angle measurements were performed on each substrate.
The results obtained were for solutions wherein lactone was replaced by sodium lauryl sulphate (SPS), APG600 (a C10-C16 alkylpolyglucoside), wild type or crude sophorolipid (as obtained after fermentation, denominated as WT in Table 2), FAEO/PO nonionic (CAS 68439-51-0, C12-14 fatty alcohol, 5 mole EO, 4 mol EO), modified FAEO/PO (C8/10 fatty alcohol+1 PO+22 EO (2-hydroxydecyl)-ether) and siloxane polyether copolymer (Silwet Hydrostable 68). […]

Test in data set [6]: as above
It is filed as physicochemical. To be noted: 1% active; for Contact angle Rinse 2: after rinse 2; for Contact angle Rinse 2 / Contact angle Rinse 3 / Contact angle Rinse 1 / Contact Angle: in ° (unit assumed); for Contact angle Rinse 3: after rinse 3; for Contact angle Rinse 1: after rinse 1; for Contact Angle: before rinsing, NM = not measurable due to an extremely low contact angle. How it is done: A test composition was made by dissolving 10% sophorolactone in ethanol. […] Different substrates are wetted with said 1% lactone dispersion and dried in a climate chamber at 40° C. Substrates used were glass, polyvinylchloride (PVC) and leek leaves.
as §1
The results obtained were for solutions wherein lactone was replaced by sodium lauryl sulphate (SPS), APG600 (a C10-C16 alkylpolyglucoside), wild type or crude sophorolipid (as obtained after fermentation, denominated as WT in Table 2), FAEO/PO nonionic (CAS 68439-51-0, C12-14 fatty alcohol, 5 mole EO, 4 mol EO), modified FAEO/PO (C8/10 fatty alcohol+1 PO+22 EO (2-hydroxydecyl)-ether) and siloxane polyether copolymer (Silwet Hydrostable 68).
This experiment was repeated with different substrates and different 1% active surfactant solutions as elaborated in Table 2.

The nature of data set [7]: Film forming properties. It is filed as physicochemical. An excerpt:
This experiment was repeated with pieces of leek with the same outcome. […] The latter destructive detection method necessitated several PVC strips to be used, each strip lasting an extra rinse cycle before detection.

A short description of data set [8]: Phytotoxicity.
A short description of data set [9]: Sensitivity to hard water. Type of data set: physicochemical.
The subject of data set [10] is dust mite proteins. Put plainly: Denaturation of dust mite proteins. It is filed as biochemical.
In data set [11] the test system is Propionibacterium acnes. The data set can be described thus: Effectiveness against acne bacterium. It is filed as cell-based.
Data set [12] in a line: Allergic reaction to house dust mite excrements.
A short description of data set [13]: Antifogging test. Type of data set: physicochemical. To be noted: mirror treated with 10% solution in water of 10% sophorolactone in ethanol, dried. How it is done: The other half of the mirror was treated with a 10% solution of ethanol.

With `OCCCO` [1.3 propanediol], the “% lactone dissolved” value in data set [1] was determined as 2.75%.
As to `CC1(C)OCC(CO)O1` (stereo not drawn) [2-3-o-isopropyliden glycerin, (2,2-dimethyl-[1,3]dioxolan-4-yl)-methanol], in data set [2], the GRAS status entry is reported as “NOK”.
Consider `OCc1ccccc1` [Benzylalcohol], for which the “% lactone dissolved” value in data set [1] is listed as 67.35%.
Consider `CCCCOC(=O)C(C)O` (stereo not drawn) [Butyl lactate], for which, in data set [1], the “% lactone dissolved” value is 20%.
Consider `CCCCCCC(O)CO` (stereo not drawn) [Caprylyl Glycol], for which the “% lactone dissolved” value in data set [1] was 8.65%.
On the same count and under the same terms, the figure for `C=C(C)[C@H]1CC=C(C)CC1` [D-limonene] is 8.5%.
Turning to `COC(C)COC(C)CO` (stereo not drawn) [DPM, dipropyleneglycol methyl ether], the GRAS status result in data set [2] is on record as “NOK”. For the same molecule, the “% lactone dissolved” value in data set [1] came to 28.93%.
Turning to `CO[C@H]1CO[C@H]2[C@@H]1OC[C@H]2OC` [Dimethyl isosorbide], the GRAS status entry in [2] was “NOK”. For the same molecule, the “% lactone dissolved” value in data set [1] worked out at 31.89%.
Consider `CCO` [Ethanol], for which the “% lactone dissolved” value in [1] was 7.5%.
For `CCOC(C)=O` [Ethylacetate], in [1], the “% lactone dissolved” value came to 3.96%.
Same read-out and setting: the value for `CC(=O)O` [Glacial acetic] was 23.65%.
On the same count and under the same terms, the figure for `O=C1OCC(CO)O1` (stereo not drawn) [Glycerincarbonate] is below 1%.
Same read-out and setting: the figure for `OCC(O)CO` [Glycerol] is below 1%; for `CCCCCCO` [Hexanol] it is 2.65%.
In the case of `OCCCc1ccccc1` [Hydrocinnamylalcohol], in data set [1], the “% lactone dissolved” value is listed as 32.5%.
`CC(C)CCOC(=O)C(C)O` (stereo not drawn) [Isoamyl lactate]: the GRAS status entry in data set [2] is reported as “NOK”. In addition, in [1], the “% lactone dissolved” value is on record as 21.2%. In [3], the solubility in water is listed as at most 1%. In addition, the “concentration at maximal PVC wetting” value in data set [4] is reported as around 1.2%.
Consider `CC(C)O` [Isopropanol], for which the “% lactone dissolved” value in data set [1] turned out to be 2.2%.
The same measure, in the same setting: the value for `CCCCOCC(C)O` (stereo not drawn) [PNB Henkel] was 6.73%.
Same read-out and setting: the value for `CCCOCC(C)O` (stereo not drawn) [PNP, 1-propoxy 2-propanol] was 15.57%; that for `OCCc1ccccc1` [Phenetyl alcohol] was 22%.
For the molecule `OCCOc1ccccc1` [Phenoxyethanol], in data set [2], the GRAS status entry is given as “NOK”.
As for `CC(O)CO` (stereo not drawn) [Propylene glycol], the “% lactone dissolved” value in [1] came out at 9.05%.
In the case of `CCCCCCCCCCCCOS(=O)(=O)[O-].[Na+]` [SLS, sodium lauryl sulphate, reference compound], in [5] (1% active, sulphate), the “Contact angle Rinse 1” value was 72 and 100 and 96; the “Contact angle Rinse 2” value was 102 and 94 and 90; the “Contact angle Rinse 3” value was 64 and 65; the “Contact angle Rinse 4” value is 75 and 84 and 102. For the same molecule, the “Contact angle Rinse 5” value in data set [5] (1% active, sulphate) is 100 and 99 and 101. Also, the “Contact Angle” value in data set [5] (1% active) worked out at 1. Further, in [6] (glass, sulphate), the “Contact angle Rinse 2” value is 33.2 and 64.2 and 33.8; the “Contact angle Rinse 3” value is 37.3 and 40.3 and 51.8. Besides, in data set [6] (glass, after rinse 4, sulphate), the “Contact angle Rinse 4” value is 50.8 and 36.2. In addition, the “Contact angle Rinse 5” value in [6] (glass, after rinse 5, sulphate) was 34 and 38 and 30.
Take `Cc1ccc(C(C)C)c(O)c1` [Thymol, thymol, reference compound]: in data set [7] (1% dispersion of 10% lactone, 10% thymol, 80% ethanol solution, smell and sulfuric acid colour), the “retention of active on PVC substrate” value was “remained fixed on the PVC substrate for several rinses”.
For Glycerin formal, the “% lactone dissolved” value in data set [1] was determined as 35%.
As for sophorolactone, the phytotoxicity entry in data set [8] is given as “not phytotoxic”. For the same molecule, in data set [5] (1% lactone dispersion made using hard water), the “contact angles and rinse resistance” value is “equally low contact angles and excellent rinse resistance”. Further, the “Contact angle Rinse 1” value in [5] (0.1% Lactone) was 66 and 67 and 79; in data set [5] (1% active in hard water (200 ppm CaCO3)) it was 19 and 20 and 21; in data set [6] (glass), 15.3 and 10 and 12; in [6] (leek), 25 and 26 and 28. In addition, the “Contact angle Rinse 2” value in [5] (0.1% Lactone) was 90 and 80; in data set [5] (1% active in hard water), 14 and 15; in data set [5] (1% active), 0; in data set [5] (1% active, listed as lactone), 8.4 and 16; in data set [6] (glass), 24.4 and 30 and 25. In addition, the “Contact angle Rinse 3” value in data set [5] (1% active in hard water) is 12 and 17 and 14; in [6] (glass) it was 23.5 and 27.8 and 25. For the same molecule, in data set [5] (1% active in hard water), the “Contact angle Rinse 4” value was 11 and 12. The “Contact angle Rinse 5” value in data set [5] (1% active in hard water) was 12 and 11 and 10. In addition, the “Contact Angle” value is 7 and 10 in data set [5] (1% active); 14.2 and 14.1 and 11.3 and 10 in data set [6] (glass); 28 and 27 and 25 in data set [6] (leek). The “wetting by water after rinses” value in data set [5] (hydrophobic surface such as PVC and leek) is listed as “excellent wetting by water even after 5 rinses”. In [9], the “sensitivity to hard water” value is listed as “insensitive to hard water”. Moreover, the “denaturation of dust mite proteins” value in [10] is on record as “denatures dust mite proteins”. Further, in [7] (1% sophorolactone dispersion in water made from 10% solution in ethanol), the stability of dispersion result is reported as “remained stable overnight at room temperature without visual separation”. Further, the “removability of dried layer by water” value in data set [7] (10% sophorolactone in benzyl alcohol applied to a PVC sheet, air dried) is “virtually impossible to remove with running tap water or with repeated rinsing with water”. Also, in data set [7] (PVC sheet, 1% sophorolactone dispersion, air dried), the “repeated rinse and dry cycles withstood by layer” value is reported as “at least 5 cycles”. For the same molecule, in data set [11], the “effectiveness against Propionibacterium acnes” value was “effective”. For the same molecule, the “allergic reaction to excrements of house dust mites” value in data set [12] was “effectively reduces the allergic reaction”. Further, in data set [13], the “condensation or fogging above boiling water” value is “not visually covered with condensation water and retained its mirror properties”.
